Measurements published in ChEMBL document CHEMBL3351810, “[(11)C-carbonyl]CEP-32496: radiosynthesis, biodistribution and PET study of brain uptake in P-gp/BCRP knockout mice” (Bioorg Med Chem Lett, 2014).

Tests used:
Mus musculus [1] = assay: Biodistribution in mouse large intestine at 8.4 MBq/0.1 ml, iv after 5 mins by PET imaging analysis; format: ADME, organism-based; conditions: in vivo
Mus musculus [2] = assay: Biodistribution in mouse large intestine at 8.4 MBq/0.1 ml, iv after 60 mins by PET imaging analysis; format: ADME, organism-based; conditions: in vivo, 1 h
Brain [3] = assay: Biodistribution in P-gp/BCRP knockout mouse brain by PET imaging analysis; format: ADME, organism-based; conditions: in vivo
Blood [4] = assay: Biodistribution in mouse blood at 8.4 MBq/0.1 ml, iv after 5 mins by PET imaging analysis; format: ADME, organism-based; conditions: in vivo
Liver [5] = assay: Biodistribution in mouse liver at 8.4 MBq/0.1 ml, iv after 5 mins by PET imaging analysis; format: ADME, organism-based; conditions: in vivo
Heart [6] = assay: Biodistribution in mouse heart at 8.4 MBq/0.1 ml, iv after 60 mins by PET imaging analysis; format: ADME, organism-based; conditions: in vivo, 1 h
Brain [7] = assay: Biodistribution in mouse brain at 8.4 MBq/0.1 ml, iv after 60 mins by PET imaging analysis; format: ADME, organism-based; conditions: in vivo, 1 h
Mus musculus [8] = assay: Biodistribution in mouse large intestine at 8.4 MBq/0.1 ml, iv after 30 mins by PET imaging analysis; format: ADME, organism-based; conditions: in vivo, 0.5 h
Blood [9] = assay: Biodistribution in mouse blood at 8.4 MBq/0.1 ml, iv after 1 min by PET imaging analysis; format: ADME, organism-based; conditions: in vivo
Muscle tissue [10] = assay: Biodistribution in mouse muscle at 8.4 MBq/0.1 ml, iv after 1 min by PET imaging analysis; format: ADME, organism-based; conditions: in vivo
Brain [11] = assay: Ratio of AUC (0 to 90 mins) in P-gp/BCRP knockout mouse brain to AUC (0 to 90 mins) in wild type mouse brain; conditions: in vivo
Lung [12] = assay: Biodistribution in mouse lung at 8.4 MBq/0.1 ml, iv after 5 mins by PET imaging analysis; format: ADME, organism-based; conditions: in vivo
Brain [13] = assay: Biodistribution in wild type mouse brain by PET imaging analysis; format: ADME, organism-based; conditions: in vivo
Mus musculus [14] = assay: Biodistribution in mouse small intestine at 8.4 MBq/0.1 ml, iv after 5 mins by PET imaging analysis; format: ADME, organism-based; conditions: in vivo
Liver [15] = assay: Biodistribution in mouse liver at 8.4 MBq/0.1 ml, iv after 1 min by PET imaging analysis; format: ADME, organism-based; conditions: in vivo
Mus musculus [16] = assay: Biodistribution in mouse small intestine at 8.4 MBq/0.1 ml, iv after 30 mins by PET imaging analysis; format: ADME, organism-based; conditions: in vivo, 0.5 h
Muscle tissue [17] = assay: Biodistribution in mouse muscle at 8.4 MBq/0.1 ml, iv after 30 mins by PET imaging analysis; format: ADME, organism-based; conditions: in vivo, 0.5 h
Lung [18] = assay: Biodistribution in mouse lung at 8.4 MBq/0.1 ml, iv after 60 mins by PET imaging analysis; format: ADME, organism-based; conditions: in vivo, 1 h
Lung [19] = assay: Biodistribution in mouse lung at 8.4 MBq/0.1 ml, iv after 15 mins by PET imaging analysis; format: ADME, organism-based; conditions: in vivo, 0.25 h
Muscle tissue [20] = assay: Biodistribution in mouse muscle at 8.4 MBq/0.1 ml, iv after 15 mins by PET imaging analysis; format: ADME, organism-based; conditions: in vivo, 0.25 h
Blood [21] = assay: Biodistribution in mouse blood at 8.4 MBq/0.1 ml, iv after 60 mins by PET imaging analysis; format: ADME, organism-based; conditions: in vivo, 1 h
Brain [22] = assay: Biodistribution in mouse brain at 8.4 MBq/0.1 ml, iv after 15 mins by PET imaging analysis; format: ADME, organism-based; conditions: in vivo, 0.25 h
Spleen [23] = assay: Biodistribution in mouse spleen at 8.4 MBq/0.1 ml, iv after 30 mins by PET imaging analysis; format: ADME, organism-based; conditions: in vivo, 0.5 h
Heart [24] = assay: Biodistribution in mouse heart at 8.4 MBq/0.1 ml, iv after 30 mins by PET imaging analysis; format: ADME, organism-based; conditions: in vivo, 0.5 h
Brain [25] = assay: Biodistribution in mouse brain at 8.4 MBq/0.1 ml, iv after 1 min by PET imaging analysis; format: ADME, organism-based; conditions: in vivo
Mus musculus [26] = assay: Biodistribution in mouse small intestine at 8.4 MBq/0.1 ml, iv after 15 mins by PET imaging analysis; format: ADME, organism-based; conditions: in vivo, 0.25 h
Kidney [27] = assay: Biodistribution in mouse kidney at 8.4 MBq/0.1 ml, iv after 1 min by PET imaging analysis; format: ADME, organism-based; conditions: in vivo
Kidney [28] = assay: Biodistribution in mouse kidney at 8.4 MBq/0.1 ml, iv after 5 mins by PET imaging analysis; format: ADME, organism-based; conditions: in vivo
Muscle tissue [29] = assay: Biodistribution in mouse muscle at 8.4 MBq/0.1 ml, iv after 60 mins by PET imaging analysis; format: ADME, organism-based; conditions: in vivo, 1 h
Pancreas [30] = assay: Biodistribution in mouse pancreas at 8.4 MBq/0.1 ml, iv after 5 mins by PET imaging analysis; format: ADME, organism-based; conditions: in vivo
Kidney [31] = assay: Biodistribution in mouse kidney at 8.4 MBq/0.1 ml, iv after 30 mins by PET imaging analysis; format: ADME, organism-based; conditions: in vivo, 0.5 h
Pancreas [32] = assay: Biodistribution in mouse pancreas at 8.4 MBq/0.1 ml, iv after 1 min by PET imaging analysis; format: ADME, organism-based; conditions: in vivo
Pancreas [33] = assay: Biodistribution in mouse pancreas at 8.4 MBq/0.1 ml, iv after 60 mins by PET imaging analysis; format: ADME, organism-based; conditions: in vivo, 1 h
Brain [34] = assay: Biodistribution in mouse brain at 8.4 MBq/0.1 ml, iv after 30 mins by PET imaging analysis; format: ADME, organism-based; conditions: in vivo, 0.5 h
Liver [35] = assay: Biodistribution in mouse liver at 8.4 MBq/0.1 ml, iv after 15 mins by PET imaging analysis; format: ADME, organism-based; conditions: in vivo, 0.25 h
Brain [36] = assay: Biodistribution in mouse brain at 8.4 MBq/0.1 ml, iv after 5 mins by PET imaging analysis; format: ADME, organism-based; conditions: in vivo
Spleen [37] = assay: Biodistribution in mouse spleen at 8.4 MBq/0.1 ml, iv after 15 mins by PET imaging analysis; format: ADME, organism-based; conditions: in vivo, 0.25 h
Blood [38] = assay: Biodistribution in mouse blood at 8.4 MBq/0.1 ml, iv after 15 mins by PET imaging analysis; format: ADME, organism-based; conditions: in vivo, 0.25 h
Blood [39] = assay: Biodistribution in mouse blood at 8.4 MBq/0.1 ml, iv after 30 mins by PET imaging analysis; format: ADME, organism-based; conditions: in vivo, 0.5 h
Lung [40] = assay: Biodistribution in mouse lung at 8.4 MBq/0.1 ml, iv after 1 min by PET imaging analysis; format: ADME, organism-based; conditions: in vivo
Kidney [41] = assay: Biodistribution in mouse kidney at 8.4 MBq/0.1 ml, iv after 60 mins by PET imaging analysis; format: ADME, organism-based; conditions: in vivo, 1 h
Spleen [42] = assay: Biodistribution in mouse spleen at 8.4 MBq/0.1 ml, iv after 5 mins by PET imaging analysis; format: ADME, organism-based; conditions: in vivo
Spleen [43] = assay: Biodistribution in mouse spleen at 8.4 MBq/0.1 ml, iv after 1 min by PET imaging analysis; format: ADME, organism-based; conditions: in vivo
Pancreas [44] = assay: Biodistribution in mouse pancreas at 8.4 MBq/0.1 ml, iv after 30 mins by PET imaging analysis; format: ADME, organism-based; conditions: in vivo, 0.5 h
Heart [45] = assay: Biodistribution in mouse heart at 8.4 MBq/0.1 ml, iv after 15 mins by PET imaging analysis; format: ADME, organism-based; conditions: in vivo, 0.25 h
Mus musculus [46] = assay: Biodistribution in mouse large intestine at 8.4 MBq/0.1 ml, iv after 1 min by PET imaging analysis; format: ADME, organism-based; conditions: in vivo
Liver [47] = assay: Biodistribution in mouse liver at 8.4 MBq/0.1 ml, iv after 60 mins by PET imaging analysis; format: ADME, organism-based; conditions: in vivo, 1 h
Pancreas [48] = assay: Biodistribution in mouse pancreas at 8.4 MBq/0.1 ml, iv after 15 mins by PET imaging analysis; format: ADME, organism-based; conditions: in vivo, 0.25 h
Liver [49] = assay: Biodistribution in mouse liver at 8.4 MBq/0.1 ml, iv after 30 mins by PET imaging analysis; format: ADME, organism-based; conditions: in vivo, 0.5 h
Heart [50] = assay: Biodistribution in mouse heart at 8.4 MBq/0.1 ml, iv after 1 min by PET imaging analysis; format: ADME, organism-based; conditions: in vivo
Brain [51] = assay: Ratio of drug uptake in P-gp/BCRP knockout mouse brain to wild type mouse brain; format: ADME; conditions: in vivo
Spleen [52] = assay: Biodistribution in mouse spleen at 8.4 MBq/0.1 ml, iv after 60 mins by PET imaging analysis; format: ADME, organism-based; conditions: in vivo, 1 h
Mus musculus [53] = assay: Biodistribution in mouse small intestine at 8.4 MBq/0.1 ml, iv after 1 min by PET imaging analysis; format: ADME, organism-based; conditions: in vivo
Kidney [54] = assay: Biodistribution in mouse kidney at 8.4 MBq/0.1 ml, iv after 15 mins by PET imaging analysis; format: ADME, organism-based; conditions: in vivo, 0.25 h
Mus musculus [55] = assay: Biodistribution in mouse large intestine at 8.4 MBq/0.1 ml, iv after 15 mins by PET imaging analysis; format: ADME, organism-based; conditions: in vivo, 0.25 h
Lung [56] = assay: Biodistribution in mouse lung at 8.4 MBq/0.1 ml, iv after 30 mins by PET imaging analysis; format: ADME, organism-based; conditions: in vivo, 0.5 h
Heart [57] = assay: Biodistribution in mouse heart at 8.4 MBq/0.1 ml, iv after 5 mins by PET imaging analysis; format: ADME, organism-based; conditions: in vivo
Mus musculus [58] = assay: Biodistribution in mouse small intestine at 8.4 MBq/0.1 ml, iv after 60 mins by PET imaging analysis; format: ADME, organism-based; conditions: in vivo, 1 h
Muscle tissue [59] = assay: Biodistribution in mouse muscle at 8.4 MBq/0.1 ml, iv after 5 mins by PET imaging analysis; format: ADME, organism-based; conditions: in vivo

Drug uptake (Mus musculus [1]): 0.76 % ID/g | Drug uptake (Mus musculus [2]): 1.98 % ID/g | Drug uptake (Brain [3]): Active | Drug uptake (Blood [4]): 0.99 % ID/g | Drug uptake (Liver [5]): 15.3 % ID/g | Drug uptake (Heart [6]): 1.98 % ID/g | Drug uptake (Brain [7]): 0.08 % ID/g | Drug uptake (Mus musculus [8]): 1.69 % ID/g | Drug uptake (Blood [9]): 3.14 % ID/g | Drug uptake (Muscle tissue [10]): 2.37 % ID/g | Ratio AUC (Brain [11]): 8 | Drug uptake (Lung [12]): 4.75 % ID/g | Drug uptake (Brain [13]): Active | Drug uptake (Mus musculus [14]): 14.31 % ID/g | Drug uptake (Liver [15]): 17.18 % ID/g | Drug uptake (Mus musculus [16]): 25.4 % ID/g | Drug uptake (Muscle tissue [17]): 1.54 % ID/g | Drug uptake (Lung [18]): 2.24 % ID/g | Drug uptake (Lung [19]): 3.76 % ID/g | Drug uptake (Muscle tissue [20]): 1.6 % ID/g | Drug uptake (Blood [21]): 0.61 % ID/g | Drug uptake (Brain [22]): 0.11 % ID/g | Drug uptake (Spleen [23]): 2.03 % ID/g | Drug uptake (Heart [24]): 3.08 % ID/g | Drug uptake (Brain [25]): 0.21 % ID/g | Drug uptake (Mus musculus [26]): 22.18 % ID/g | Drug uptake (Kidney [27]): 12.33 % ID/g | Drug uptake (Kidney [28]): 8.36 % ID/g | Drug uptake (Muscle tissue [29]): 1.06 % ID/g | Drug uptake (Pancreas [30]): 2.77 % ID/g | Drug uptake (Kidney [31]): 7.44 % ID/g | Drug uptake (Pancreas [32]): 2.96 % ID/g | Drug uptake (Pancreas [33]): 2.66 % ID/g | Drug uptake (Brain [34]): 0.12 % ID/g | Drug uptake (Liver [35]): 17.4 % ID/g | Drug uptake (Brain [36]): 0.1 % ID/g | Drug uptake (Spleen [37]): 2.05 % ID/g | Drug uptake (Blood [38]): 0.95 % ID/g | Drug uptake (Blood [39]): 0.87 % ID/g | Drug uptake (Lung [40]): 14.3 % ID/g | Drug uptake (Kidney [41]): 4.91 % ID/g | Drug uptake (Spleen [42]): 2.05 % ID/g | Drug uptake (Spleen [43]): 3.92 % ID/g | Drug uptake (Pancreas [44]): 3.94 % ID/g | Drug uptake (Heart [45]): 3.56 % ID/g | Drug uptake (Mus musculus [46]): 0.81 % ID/g | Drug uptake (Liver [47]): 12.69 % ID/g | Drug uptake (Pancreas [48]): 3.52 % ID/g | Drug uptake (Liver [49]): 18.42 % ID/g | Drug uptake (Heart [50]): 11.25 % ID/g | Ratio (Brain [51]): 24 | Drug uptake (Spleen [52]): 1.36 % ID/g | Drug uptake (Mus musculus [53]): 5.92 % ID/g | Drug uptake (Kidney [54]): 7.68 % ID/g | Drug uptake (Mus musculus [55]): 1.01 % ID/g | Drug uptake (Lung [56]): 3.34 % ID/g | Drug uptake (Heart [57]): 4.43 % ID/g | Drug uptake (Mus musculus [58]): 21.23 % ID/g | Drug uptake (Muscle tissue [59]): 1.52 % ID/g
SMILES: COc1cc2ncnc(Oc3cccc(N[11C](=O)Nc4cc(C(C)(C)C(F)(F)F)on4)c3)c2cc1OC.Cl
